Reference: US7173030B2, “Inhibitors of 11-β-hydroxy steroid dehydrogenase type 1” (Biovitrum AB, priority 2003, dated 2007)
pKi: −log10 of the molar value.

Tests used:
[1] = target: T1, human 11-β-hydroxysteroid dehydrogenase type-1 enzyme (11-β-HSD1) (Homo sapiens, UniProt P28845); experiment: Scintillation proximity assay: human 11-β-HSD1 enzyme assay; format: biochemical; settings: Ki calculated from IC50 (Cheng Prushoff)
T1 construct: made in house; host or cells: Pichia pastoris
Source text: [1,2(n)-^3H]-cortisone was purchased from Amersham Pharmacia Biotech. Anti-cortisol monoclonal mouse antibody, clone 6D6.7 was obtained from Immunotech and Scintillation proximity assay (SPA) beads coated with monoclonal antimouse antibodies were from Amersham Pharmacia Biotech. NADPH, tetrasodium salt was from Calbiochem and glucose-6-phosphate (G-6-P) was supplied by Sigma. The human 11-β-hydroxysteroid dehydrogenase type-1 enzyme (11-β-HSD1) was expressed in Pichia pastoris. 18-β-glycyrrhetinic acid (GA) was obtained from Sigma. The serial dilutions of the compounds were performed on a Tecan Genesis RSP 150. […]
The multiplication of plates was done on a WallacQuadra. The amount of the product [^3H]-cortisol, bound to the beads was determined in a Packard, Top Count microplate liquid scintillation counter. […]
The plates were covered with plastic film and incubated on a shaker for 30 minutes, at room temperature, before counting. The amount of [^3H]-cortisol, bound to the beads was determined in a microplate liquid scintillation counter.
The calculation of the Ki values for the inhibitors was performed by use of Activity Base. The Ki value is calculated from IC50 and the Km value is calculated using the Cheng Prushoff equation (with reversible inhibition that follows the Michaelis-Menten equation): […] [Cheng, Y. C.; Prushoff, W. H. Biochem. Pharmacol. 1973, 22, 3099–3108]. […]

intraocular pressure = settings: normal subjects; Raus et al 2001; cited from earlier work
[2] = test system: hepatic insulin sensitivity; settings: healthy human volunteers; Walker et al. 1995; cited from earlier work
Diabetic KKA^y mice = experiment: Wound healing of surgical wounds in diabetic KKA^y mice; format: in vivo; settings: oral twice daily 200 mg/kg/day for 3.5 days
Experimental: Diabetic KKA^y mice underwent surgery during anesthesia whereby a catheter was inserted in the jugularis vein. Oral treatment twice daily (200 mg/kg/day) with the 11β-HSD1 inhibitor BVT.2733 (disclosed as Example 172A in WO 01/90090), or vehicle started 4–6 days later and continued for 3.5 days.
Advantageous effects on wound healing of the surgical wounds were observed during treatment.

T1 sequence (P28845 whole entry): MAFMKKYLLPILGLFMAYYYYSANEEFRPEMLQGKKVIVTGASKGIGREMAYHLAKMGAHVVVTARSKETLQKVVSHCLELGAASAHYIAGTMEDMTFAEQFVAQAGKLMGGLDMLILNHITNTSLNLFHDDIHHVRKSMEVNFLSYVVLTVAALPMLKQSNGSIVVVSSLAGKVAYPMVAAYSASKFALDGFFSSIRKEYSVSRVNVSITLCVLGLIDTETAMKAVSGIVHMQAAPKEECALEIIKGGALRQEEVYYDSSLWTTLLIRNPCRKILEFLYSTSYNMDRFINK

## Cc1ccc([N+](=O)[O-])cc1S(=O)(=O)Nc1nc(C(C)C)ns1 [Example 80, N-(3-isopropyl-1,2,4-thiadiazol-5-yl)-2-methyl-5-nitrobenzenesulfonamide]
[1]
  pKi: 6.49

## CC1(C)[C@@H](OC(=O)CCC(=O)O)CC[C@]2(C)[C@H]3C(=O)C=C4[C@@H]5C[C@@](C)(C(=O)O)CC[C@]5(C)CC[C@@]4(C)[C@]3(C)CC[C@@H]12 [carbenoxolone]
Intraocular pressure
  reduction of intraocular pressure: 20%
[2]
  hepatic insulin sensitivity: improved

## BVT.2733
Diabetic KKA^y mice; jugular catheter surgery, vehicle 58%
  animals showing complications during treatment period: 24%
Diabetic KKA^y mice; compared to control mice
  effects on wound healing of the surgical wounds: less pus in the wound, as well as better wound strength

## CC(C)c1nnc(NS(=O)(=O)c2ccc(Oc3ccccc3)cc2)s1 [Example 244, N-(5-isopropyl-1,3,4-thiadiazol-2-yl)-4-phenoxybenzenesulfonamide]
[1]
  pKi: 6.66
